In ChEMBL document CHEMBL1125670, “Synthesis and evaluation of novel ether lipid nucleoside conjugates for anti-HIV-1 activity” (J Med Chem, 1991):

Experiments:
[1] = system: Human immunodeficiency virus 1; assay: Anti-HIV-1 activity against syncytial plaque formation; assay type: functional, organism-based
CEM-SS = assay: Concentration of compound required to 50% growth inhibition of CEM-SS cells
[2] = system: Human immunodeficiency virus 1; assay: Anti-HIV-1 activity against syncytial plaque formation at a conc. of 0.03 uM; assay type: functional
[3] = system: Human immunodeficiency virus 1; assay: Anti-HIV-1 activity against syncytial plaque formation at a conc. of 0.5 uM; assay type: functional
U1 [4] = assay: (§1) inhibition of HIV-1 induced RT production in U1 cells; assay type: functional, Homo sapiens; design: scale not given: the % may be the effect or the level left
[5] = system: Human immunodeficiency virus 1; assay: Anti-HIV-1 activity against syncytial plaque formation at a conc. of 0.12 uM; assay type: functional
[6] = system: Human immunodeficiency virus 1; assay: Anti-HIV-1 activity against syncytial plaque formation at a conc. of 0.06 uM; assay type: functional
U1 [7] = assay: (§2) inhibition of infectious virus production in U1 cells; assay type: functional, Homo sapiens; design: scale not given: the % may be the effect or the level left
[8] = system: Human immunodeficiency virus 1; assay: Anti-HIV-1 activity against syncytial plaque formation at a conc. of 1 uM; assay type: functional
[9] = system: Human immunodeficiency virus 1; assay: Anti-HIV-1 activity against syncytial plaque formation at a conc. of 0.25 uM; assay type: functional
U1 [10] = assay: (§3) inhibition of p24 core antigen synthesis in U1 cells; assay type: functional, Homo sapiens; design: scale not given: the % may be the effect or the level left
U1 [11] = assay: as §1; assay type: functional, Homo sapiens
[12] = system: Human immunodeficiency virus 1; assay: Anti-HIV-1 activity against syncytial plaque formation at a conc. of 0.0003 uM; assay type: functional
[13] = system: Human immunodeficiency virus 1; assay: Anti-HIV-1 activity against syncytial plaque formation at a conc. of 0.0015 uM; assay type: functional
U1 [14] = assay: as §3; assay type: functional, Homo sapiens
[15] = system: Human immunodeficiency virus 1; assay: Anti-HIV-1 activity against syncytial plaque formation at a conc. of 0.003 uM; assay type: functional
[16] = system: Human immunodeficiency virus 1; assay: Anti-HIV-1 activity against syncytial plaque formation at a conc. of 0.006 uM; assay type: functional
[17] = system: Human immunodeficiency virus 1; assay: Anti-HIV-1 activity against syncytial plaque formation at a conc. of 0.0007 uM; assay type: functional
[18] = system: Human immunodeficiency virus 1; assay: Anti-HIV-1 activity against syncytial plaque formation at a conc. of 0.012 uM; assay type: functional
U1 [19] = assay: as §2; assay type: functional, Homo sapiens

Compound: CCCCCCCCCCCCCCCCCC(=O)NCC(COP(=O)(O)O)OCC (stereo not given)
- IC50 [1]: > 100 µM
- IC50 (CEM-SS): > 100 µM

Compound: CCCCCCCCCCCCCCCCCC(=O)[N-]CC(COP(=O)([O-])OCC[N+](C)(C)C)OCC.[Na+] (stereo not given)
- inhibition at 0.03 µM [2]: 14%
- inhibition at 0.5 µM [3]: 74%
- Control (U1 [4]): 147%
- IC50 [1]: 0.11 µM
- inhibition at 0.12 µM [5]: 49%
- inhibition at 0.06 µM [6]: 34%
- Control (U1 [7]): 33%
- inhibition at 1 µM [8]: 89%
- IC50 (CEM-SS): 14.3 µM
- inhibition at 0.25 µM [9]: 60%
- Control (U1 [10]): 74%

Compound: CCCCCCCCCCCCCCCCSCC(COP(=O)([O-])OCC[N+](C)(C)C)OCC (stereo not given)
- IC50 [1]: 0.6 µM
- IC50 (CEM-SS): 4.1 µM

Compound: CCCCCCCCCCCCCCCCCC(=O)NCC(CO)OCC (stereo not given)
- IC50 [1]: > 100 µM
- IC50 (CEM-SS): > 100 µM

Compound: CCCCCCCCCCCCCCCCCC(=O)NCC(COP(=O)([O-])OC[C@H]1O[C@@H](n2cc(C)c(=O)[nH]c2=O)C[C@@H]1N=[N+]=[N-])OCC.[Na+] (stereo not given in full)
- Control (U1 [4]): 121%
- IC50 [1]: 0.03 µM
- Control (U1 [7]): 67%
- IC50 (CEM-SS): 53.8 µM
- Control (U1 [10]): 84%

Compound: CCCCCCCCCCCCCCCCOCC(COP(=O)(O)OC[C@H]1O[C@@H](n2cc(C)c(=O)[nH]c2=O)C[C@@H]1N=[N+]=[N-])OCC (stereo not given in full)
- IC50 [1]: 0.03 µM
- IC50 (CEM-SS): 35 µM

Compound: CCCCCCCCCCCCCCCCCC(=O)NCC(COP(=O)(O)OC[C@@H]1CC[C@H](n2cnc3c(=O)[nH]cnc32)O1)OCC (stereo not given in full)
- IC50 [1]: 1.56 µM
- IC50 (CEM-SS): > 100 µM

Compound: O=c1[nH]cnc2c1ncn2[C@H]1CC[C@@H](CO)O1 [DIDANOSINE]
- IC50 [1]: 1.7 µM
- IC50 (CEM-SS): > 100 µM

Compound: CCCCCCCCCCCCCCCCCCOCC(COP(=O)([O-])OCC[N+](C)(C)C)OC (stereo not given) [EDELFOSINE]
- IC50 [1]: 1.4 µM
- IC50 (CEM-SS): 4 µM

Compound: Cc1cn([C@H]2C[C@H](N=[N+]=[N-])[C@@H](CO)O2)c(=O)[nH]c1=O [ZIDOVUDINE]
- Of control (U1 [11]): 90%
- inhibition at 0.0003 µM [12]: 18%
- inhibition at 0.0015 µM [13]: 70%
- IC50 (CEM-SS): 5.1 µM
- Of control (U1 [14]): 101%
- inhibition at 0.003 µM [15]: 79%
- inhibition at 0.006 µM [16]: 87%
- inhibition at 0.0007 µM [17]: 53%
- inhibition at 0.012 µM [18]: 93%
- Of control (U1 [19]): 87%
